# Measurements taken from patent US4670255A, “Hair tonic composition” (priority 1983, dated 1987).
# Tested on: testosterone 5α-reductase
# Assay: Determination of 5α-reductase inhibitory activity (labelled testosterone conversion)
# Type: biochemical, rats
# Procedure: Prostate gland cells of rats were crushed and a specimen of testosterone 5α-reductase was then prepared by separating microsome from the crushed liquid mixture. The conversion of testosterone to 5α-dihydrotestosterone by the use of the above-prepared enzyme specimen was monitored by radioisotopically labelled testosterone. The reaction mixture was extracted with ethyl acetate and the extract was developed twice by silica gel thin layer chromatography (solvent system, dichloromethane:cyclohexane:acetone=15:4:1). The amount of 5α-dihydrotestosterone were determined from the intensities of the radioactivity.
# A 30 μl amount of a 0.05M phosphate buffer (pH=6.6) containing 0.1% of BSA (bovine serum albumin), 10 μl of an enzyme specimen, 8.5 pmol of labelled testosterone, 50 nmol of a reduced form of NADP (nicotinamide adenine dinucleotide phosphate), and 10 μl of a test sample were mixed (total amount=50 μl). The mixture was allowed to react at a temperature of 25° C. for 60 minutes.
# After the completion of the reaction, the reaction mixture was extracted with ethyl acetate by adding 50 μl of ethyl acetate to the reaction mixture. The extract was developed in the same manner as mentioned above and the intensity of the radioisotope was measured by using a scintillation counter.
# The above-mentioned determination was applied to the samples having various concentrations. The 5α-reductase inhibitory activity was obtained as a inhibitory rate (%) or a 50% inhibitory concentration.
row,5α-reductase inhibitory activity (in words),SMILES
1,especially strong,CCCCC/C=C\C/C=C\CCCCCCCC(=O)O [linolic acid]
2,especially strong,CCCCCCCCCCCCCCCC(=O)O [palmitic acid]
3,especially strong,CCCCCC/C=C\CCCCCCCC(=O)O [palmitoleic acid]

row,SMILES,5α-reductase inhibitory activity (in words)
1,CCCCCCCC/C=C\CCCCCCCC(=O)O [oleic acid],especially strong
